Patent publication US9387206B2, “Therapeutic approaches for treating Alzheimer's disease” (PHARNEXT, priority 2009, dated 2016)

B1: brain-derived neurotrophic factor (protein, UniProt P23560 19-247, looked up)
Neurotrophic factor BDNF …: APMKEANIRGQGGLAYPGVRTHGTLESVNGPKAGSRGLTSLADTFEHVIEELLDEDQKVRPNEENNKDADLYTSRVMLSSQVPLEPPLLFLLEEYKNYLDAANMSMRVRRHSDPARRGELSVCDSISEWVTAADKKTAVDMSGGTVTVLEKVPVSKGQLKQYFYETKCNPMGYTKEGCRGIDKRHWNSQCRTTQSYVRALTMDSKKRIGWRFIRIDTSCVCTLTIKRGR
notes: positive control for neuroprotection at 50 ng/ml

What was measured:
Type in all cases: cell-based
[1] = tested on: human brain microvascular endothelial cells (HBMEC); test: Total length of capillary network in human Aβ1-42 intoxicated HBMEC cultures; details: for Effect on Aβ1-42 intoxication, total length of capillary network, drug alone: alone at the concentrations used in the combination (FIGS. 8-13); for Effect on Aβ1-42 intoxication, total length of capillary network, drug alone / Prevention of Aβ1-42 intoxication, capillary network, drug alone: Aβ1-42 2.5 μM; for Prevention of Aβ1-42 intoxication, capillary network, drug alone: dose-response experiments, 18 h
Description: Human brain microvascular endothelial cell cultures were used to study the protection afforded by candidate compounds on Aβ1-42 toxicity.
Human brain microvascular endothelial cerebral cells (HBMEC, ScienCell Ref: 1000, frozen at passage 10) were rapidly thawed in a water bath at +37° C. […] On matrigel support, endothelial cerebral cells spontaneously started the process of capillary network morphogenesis (47).
Three separate cultures were performed per condition, 6 wells per condition.
The control medium was prepared in the same conditions.
The Aβ1-42 peptide was added 2 hours after HBMEC seeding on matrigel for 18 hours incubation.
Capillary Network Quantification
Per well, 2 pictures with 4× lens were taken using InCell Analyzer™ 1000 (GE Healthcare) in light transmission. All images were taken in the same conditions. Analysis of the angiogenesis networks was done using Developer software (GE Healthcare). The total length of capillary network was assessed.
All values are expressed as mean±s.e.mean of the 3 cultures (n=6 per condition). Statistical analyses were done on the different conditions performing an ANOVA followed by the Dunnett's test when it was allowed (Statview software version 5.0). The values (as %) inserted on the graphs show the amyloid toxicity evolution. Indeed, the amyloid toxicity was taken as the 100% and the test compound effect was calculated as a % of this amyloid toxicity.

[2] = tested on: rat primary cortical neurons; test: LDH release, human Aβ1-42 toxicity on rat primary cortical cells
Description: Primary rat cortical neurons are cultured as described previously.
Briefly, Aβ1-42 peptide was reconstituted in defined culture medium at 40 μM (mother solution) and was slowly shacked at +37° C. for 3 days in the dark for aggregation. The control medium was prepared in the same conditions.
After 10 days of neuron culture, the drug was solved in culture medium (+0.1% DMSO) and then pre-incubated with neurons for 1 hour before the Aβ1-42 application (in a final volume per culture well of 100 μl). […] Cortical neurons were intoxicated for 24 hours. Three separate cultures were performed per condition, 6 wells per condition.
Estradiol-β at 100 and 150 nM were used as a reference test compound and BDNF at 50 ng/ml was used as a positive control. Three separate cultures were performed per condition, […].
Estradiol-β and BDNF were solved in culture medium and pre-incubated for 1 h before the aggregated amyloid-β1-42 application.
Lactate Dehydrogenase (LDH) Activity Assay
This colorimetric assay for the quantification of cell toxicity is based on the measurement of lactate dehydrogenase (LDH) activity released from the cytosol of dying cells into the supernatant.
All values are expressed as mean±s.e.mean of the 3 cultures (n=6 per condition). Statistical analyses were done on the different conditions (ANOVA followed by the Dunnett's test when it was allowed, Statview software version 5.0).

[3] = tested on: rat endothelial cerebral cells; test: LDH release from rat endothelial cerebral cells, beta-amyloid (Aβ25-35) toxicity; details: for Prevention of Aβ25-35 intoxication, LDH release: Aβ25-35 30 μM, 3 days, drug added 1 hour before
Description: Primo culture of rat endothelial cerebral cells (Vect-Horus SAS, Marseille) is cultivated on passage 0. At confluence, endothelial cells are dissociated with trypsin EDTA (Pan Biotech Ref: P10-023100). Cells are seeded at a density of 25,000 cells/well in 96-well plates (wells are coated with 30 μl of type I rat collagen at 1.5 mg/ml, Vect-Horus SAS, Marseille) and are cultured in MCBD 131 medium (M-131-500, Invitrogen) supplemented with 1% of microvascular growth supplement (MVGS, S-005-25, Invitrogen). Cells are cultured at 37° C. in a humidified air (95%)/CO2(5%) atmosphere. Half of the medium is changed every other day with fresh medium.
After 4 days, drugs are added to the cell culture medium, at different concentrations, solved in DMSO 0.1% or water.
Cells are then intoxicated with 30 μM of β-amyloid (25-35; Sigma) together with drugs in the same culture medium. Cells are then intoxicated for 3 days.
For each culture, after 3 days of intoxication, the supernatant is collected and analyzed with the Cytotoxicity Detection Kit (LDH, Roche Applied Sciences). This colorimetric assay for the quantification of cell death is based on the measurement of lactate dehydrogenase (LDH) activity released from the cytosol of damaged cells into the supernatant. The optic density (DO) is assessed by spectrophotometer at 492 nm wavelength by a multiscan apparatus (Thermo, Ref Ascent).
Results presented in FIG. 3 are extracted from two independent cultures, 6 wells per condition. All values are expressed as mean±s.e.m. A bilateral Student's t test analysis is performed on raw data. Results are expressed in percentage of cell viability, compared to the control (vehicle).
Drugs are incubated with rat primary cerebral endothelial cells for one hour before Aβ25-35 30 μM intoxication that lasts 3 days.
Three days after this incubation, LDH release in the culture medium is quantified, reflecting the level of cell death.

[4] = drug pretreatment, concentration not given

| Molecule | Effect on Aβ1-42 intoxication, total length of capillary network, drug alone [1] | Prevention of Aβ1-42 intoxication, capillary network, drug alone [1] | LDH release, prevention of Aβ1-42 intoxication [2, 4] [%] | other results |
| --- | --- | --- | --- | --- |
| NCC(CC(=O)O)c1ccc(Cl)cc1 (racemic) [Baclofen] | no significant effect | significantly prevented | −86 | – |
| NCCCCCC(=O)O [Aminocaproic acid, Aminocaproic Acid] | no significant effect | – | – | – |
| NCC(CC(=O)O)c1ccc(Cl)cc1 (stereo not drawn) [Baclofen (−), Baclofen] | – | – | – | Prevention of Aβ25-35 intoxication, LDH release [3]: significantly prevented |
| CCN(CC)C(=O)N1CCN(C)CC1 [Carbamazine] | – | – | – | Effect on Aβ1-42 intoxication, LDH release, drug alone ([2]; 0.32 nM alone, Aβ1-42 2.5 μM): no significant effect; LDH release, prevention of Aβ1-42 intoxication ([2]; 40 nM, Aβ1-42 10 μM): −68%; Protective effect against toxicity of Aβ peptide 1-42, drug alone ([2]; 40 nM, primary cortical neuron cells): strong protective effect |
| CC1(C)[C@@H](OC(=O)CCC(=O)O)CC[C@]2(C)[C@H]3C(=O)C=C4[C@@H]5C[C@@](C)(C(=O)O)CC[C@]5(C)CC[C@@]4(C)[C@]3(C)CC[C@@H]12 [Carbenoxolone] | – | – | −39 | – |
| C(=C\c1ccccc1)/CN1CCN(C(c2ccccc2)c2ccccc2)CC1 [Cinnarizine] | – | – | −50 | – |
| CCOC(=O)c1cncn1[C@H](C)c1ccccc1 [Etomidate] | – | – | −50 | – |
| C[C@@H]1CC(=O)NN=C1c1ccc(NN=C(C#N)C#N)cc1 [Levosimendan] | no significant effect | significantly prevented | −47 | Protective effect against toxicity of Aβ peptide 1-42, drug alone ([1]; 8 nM, HBMEC): strong protective effect |
| CN(C/C=C/C#CC(C)(C)C)Cc1cccc2ccccc12 [Terbinafine] | no significant effect | significantly prevented | – | Prevention of Aβ25-35 intoxication, LDH release [3]: significantly prevented; Spontaneous cell death in the culture medium ([3]; LDH release, rat endothelial cerebral cells): decrease spontaneous cell death |
| B1 | – | – | – | LDH release, protection from amyloid injury ([2]; BDNF 50 ng/ml, 1 hr pre-treatment, Aβ1-42): −62% |
